Measurements published in patent US4304778A, “4-Aminoquinazoline derivatives having fungicidal, anti-insect and acaricidal properties” (Sankyo Company Limited, priority 1978, dated 1981).

How the values were obtained:
[1] = test system: Piricularia oryzae; assay type: in vivo; details: rice blast; 500 ppm spray; mean, upper two leaves
[2] = test system: cockroach larvae; details: 24 hours; 25° C.
[3] = test system: Sphaerotheca fuliginea; assay: Effect on powdery mildew in cucumbers; assay type: in vivo; details: cucumber powdery mildew; 500 ppm; 10 days
[4] = test system: Phytophthora infestans; assay type: in vivo; details: tomato late blight; 500 ppm; after 5 days; average per leaf
[5] = test system: final instar larvae of the diamondback moth (Plutella xylostella); assay: Repellent and emergence-inhibition effect on the final instar larvae of diamondback moths; assay type: in vivo; design: key to Extent of ingestion: -: no ingestion; ±: very little ingestion; +: some ingestion; ++: considerable ingestion; details: 72 hours; for pest or weed control at 500 ppm: Plutella xylostella, read-out: Emergence-inhibition rate (%); for Extent of ingestion: radish leaves dipped in 500 ppm
[6] = test system: cotton aphid (Aphis gossyppi); assay: Effect on the cotton aphid on cucumbers; assay type: in vivo; details: 600 ppm; 5 sprayings Sept. 25 to Oct. 30; examined Nov. 9; untreated control 8.7
Excerpt: (§1) In the following Examples, wettable powders prepared according to the procedures of Example 4 were used, each powder containing 50% by weight of the active compound of this invention.
Cucumbers (variety "Tokiwa Hikari No. 3, Type P") were transplanted into a plastic greenhouse on September 12. Using a shoulder sprayer, a liquid containing 600 ppm of one of the compounds shown in Table 11 was sprayed on the surface and reverse side of the leaves on Sept. 25, Oct. 9, 16, 23 and 30. On Nov. 9, the effect on the cotton aphid (Aphis gossyppi) was investigated, sampling 25-30 leaves at random from each test area and calculating the number of colonies on each leaf; there were generally 50-100 aphids per colony. The results are shown as the number of colonies per leaf in Table 11, which also gives the results for a test area where no compound of the invention was applied.

[7] = test system: third instar larvae of the tobacco cutworm; assay: Repellent action against the third instar larvae of the tobacco cutworm; assay type: in vivo; design: key: -: no ingestion; ±: very little ingestion; +: some ingestion; ++: considerable ingestion; details: cabbage leaves dipped in 500 ppm, 72 hours
Excerpt: as §1
Cabbage leaves were dipped for 30 seconds in an aqueous suspension containing 500 ppm of one of the active compounds shown in Table 6. After air-drying, each leaf was placed into a plastic receptacle having a diameter of 8 cm and the third instar larvae (10 per receptacle) of the tobacco cutworm were released onto the leaves. After 72 hours, the extent of ingestion of the leaves was measured, using two receptacles for each test compound. The results are shown in Table 6, using the following notation (which is also employed, with the same meaning, in following Table 9): […]

[8] = test system: guppies; assay: Toxicity to guppies; assay type: in vivo; details: LC50 after 48 hours classified
Method: In this example the toxicity of the compounds of the invention towards guppies was estimated and is compared with that of corresponding compounds as disclosed and claimed in our co-pending U.S. Application No. 910,117 filed May 30, 1978. The LC50 was determined after 48 hours and the toxicity to guppies was classified into the rankings (i), (ii) and (iii) according to the following classification scheme: […]

[9] = test system: Colletotrichum lagenarium; assay: Effect on anthracnose in cucumbers; assay type: in vivo; details: cucumber anthracnose; 500 ppm; seven days; cotyledon and first leaf
Method: as §1
Groups of cucumber plants (variety Sagamihanshiro) were planted, two per pot, in a series of Wagner pots (diameter 12 cm) and were used as host plants when the first leaf was fully grown and open. Each test group of three pots was treated with one of the active compounds shown in Table 4 by spraying an aqueous suspension containing 500 ppm of the active compound onto the plants at the rate of 30 ml per 3 pots. After air-drying the plants, a spore suspension of the pathogenic microorganism Colletotrichum lagenarium was sprayed onto the plants and the plants were kept in a wet room for 24 hours at 20°-22° C. and 100% relative humidity. The pots were then placed in a greenhouse at 26° C. and, seven days after the spore suspension had been sprayed on, the percentage diseased area of the cotyledon and the first leaf was calculated.

Structure (SMILES)	No. of disease spots per leaf [1] [spots per leaf]	Mortality rate (%), 0.5mg test cpd/10 cockroaches/bottle [2] [%]	Mortality rate (%), 1mg test cpd/10 cockroaches/bottle [2] [%]	Diseased area (%) [3] [%]	Diseased area (%) [4] [%]	pest or weed control at 500 ppm [5] [%]	Extent of ingestion [5]	No. of colonies per leaf [6] [colonies per leaf]	Extent of ingestion [7]	Toxicity ranking [8]	Diseased area (%) [9] [%]
Cc1ccc(COCCN(C)c2ncnc3ccccc23)cc1 [compound 13, 4-{N-methyl-N-[2-(4-methylbenzyloxy)ethyl]amino}quinazoline]	2.9	80	100								
Cc1ccc(OCCN(C)c2ncnc3ccccc23)cc1 [compound 18, 4-{N-methyl-N-[2-(4-methylphenoxy)ethyl]amino}quinazoline]	2.6	90	100	8	16						
CCCCCCCCc1ccc(OCCN(C)c2ncnc3ccccc23)c(C)c1 [compound 58, 4-{N-methyl-N-[2-(2-methyl-4-octylphenoxy)ethyl]amino}quinazoline]		90	100		10	85	±	0.5	± to +		
CC(C)c1ccccc1OCCN(C)c1ncnc2ccccc12 [compound 15, 4-{N-[2-(2-isopropylphenoxy)ethyl]-N-methylamino}quinazoline]	3.0	80	100	0	0	60	±		± to +	ii (all fish dead at 10 ppm but alive at 0.5 ppm)	
Cc1cc(Cl)ccc1OCCN(C)c1ncnc2ccccc12 [compound 22, 4-{N-[2-(4-chloro-2-methylphenoxy)ethyl]-N-methylamino}quinazoline]		80	100	0	15	80	±	1.1	± to +		0
Cc1ccc(C(C)C)cc1OCCN(C)c1ncnc2ccccc12 [Compound No. 21, 4-{N-[2-(5-isopropyl-2-methylphenoxy)ethyl]-N-methylamino}quinazoline]		90	100	0	12	90	±	1.0	+		0
CCCCCCN(CCOc1ccccc1C(C)C)c1ncnc2ccccc12 [compound 44, 4-{N-hexyl-N-[2-(2-isopropylphenoxy)ethyl]amino}quinazoline]	3.1										
Cc1ccc(OCCN(C)c2ncnc3ccccc23)c(C)c1 [compound 17, 4-{N-[2-(2,4-dimethylphenoxy)ethyl]-N-methylamino}-quinazoline]	2.4	90	100	0	9	50	± to +		+	ii (all fish dead at 10 ppm but alive at 0.5 ppm)	
